The record followed here is PubChem BioAssay AID506 (SGCOxCompounds, 2006).

In this assay the target is Serine/threonine-protein kinase Nek2 (Homo sapiens) (UniProt P51955). The experiment in a line: NEK2 binders by thermal shift, biophysical, DSF, SYPRO orange, recombinant protein (AID 506). As to conditions: at 10 µM, protein 2 µM, hits give high values.
Chain of Serine/threonine-protein kinase Nek2 (Homo sapiens) (P51955 whole entry, looked up): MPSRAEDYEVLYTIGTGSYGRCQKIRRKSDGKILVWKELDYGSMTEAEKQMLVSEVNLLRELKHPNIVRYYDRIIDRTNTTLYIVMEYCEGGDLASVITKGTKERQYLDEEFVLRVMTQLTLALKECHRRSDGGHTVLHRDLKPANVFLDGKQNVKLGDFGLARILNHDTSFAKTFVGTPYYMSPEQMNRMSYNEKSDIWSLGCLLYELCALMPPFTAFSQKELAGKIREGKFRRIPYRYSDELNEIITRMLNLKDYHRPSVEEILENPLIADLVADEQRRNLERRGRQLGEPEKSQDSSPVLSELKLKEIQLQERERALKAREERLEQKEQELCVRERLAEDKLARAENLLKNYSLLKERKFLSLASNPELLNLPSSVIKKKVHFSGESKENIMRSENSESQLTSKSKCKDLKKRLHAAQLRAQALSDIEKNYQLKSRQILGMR
Regarding `O=C1NCc2c1c1c3ccccc3[nH]c1c1[nH]c3ccccc3c21`, the Tm shift was 3.7 °C.
In the case of `O=c1c(O)c(-c2ccc(O)c(O)c2)oc2cc(O)cc(O)c12`, the Tm shift was 3.4 °C.
In the case of `OCC(O)CCO/N=C1/C(c2c(O)[nH]c3ccccc23)=Nc2ccccc21` (stereo unspecified), the Tm shift was 3.3 °C.
To `COc1cccc(-c2cnn3ccc(Nc4cccc(Cl)c4)nc23)c1` belongs 3.2 °C.
Regarding `CCN(CC)CCNC(=O)c1c(C)[nH]c(/C=C2\C(=O)Nc3ccc(Cl)cc32)c1C`, the Tm shift was 5.4 °C.
Then `Cc1cc(Nc2nc(-c3ccccc3)nc3ccccc23)n[nH]1`, with 3.7 °C; and `Cn1cc(/C=C2\C(=O)Nc3ccc(S(N)(=O)=O)cc32)c2ccccc21`, with 6 °C.
On to `C=CCNC(=O)c1cccc2c1-c1ccccc1C2=O`, for which the Tm shift is 4.6 °C.
Then `Nc1nc(Nc2ccc(S(N)(=O)=O)cc2)nn1C(=S)Nc1c(F)cccc1F`, with 3.1 °C; and `O=C1C(C2=C3C(=Nc4ccccc43)/C(=C\c3ccc(O)cc3)C2=O)=C2C(=Nc3ccccc32)/C1=C\c1ccc(O)cc1`, with 3.2 °C; and `Clc1cccc(Nc2ccn3ncc(-c4ccc5c(c4)OCO5)c3n2)c1`, with 3.3 °C.
In the case of `Nc1cccc(-c2cc3c(Oc4cccc(O)c4)ncnc3[nH]2)c1`, the Tm shift is 3.3 °C.
For `Nc1cc2ncnc(Nc3cccc(Br)c3)c2cc1N`, the Tm shift is 3.3 °C.
To `NC(=O)Nc1sc(-c2ccccc2)cc1C(N)=O` belongs 3.1 °C; to `NS(=O)(=O)c1ccc(Nc2nc(OCC3CCCCC3)c3[nH]cnc3n2)cc1`, 5.6 °C.
Then `O=Nc1c(-c2c(O)[nH]c3ccc(S(O)(O)O)cc23)[nH]c2ccccc12`, with 3.2 °C.
